Settings in one data set: not given
Compound `CCC(C)(C)I` displayed a boiling point of 124 °C.

In the case of `COc1ccc(N=C=S)cc1`, the boiling point was 280 °C and the melting point was determined as 18 °C.

Take `CCCCCCCCNCCCCCCCC`: the boiling point was determined as 298 °C, the melting point was found to be 35.5 °C and the ready biodegradability result was “readily biodegradable”.

With `C=CC(=O)OCCO`, the boiling point came out at 191 °C, the log10 vapour pressure (mmHg) was -1.28 and the ready biodegradability entry is “readily biodegradable”.

Take `c1c[nH]cn1`: the boiling point is 257 °C, the melting point turned out to be 90.5 °C and the ready biodegradability result is on record as “readily biodegradable”.

In turn, `ClCC#CCCl` came in with a boiling point of 166 °C.

Take `O[C@@H](Cc1ccccc1)c1ccccc1`: the melting point was 67 °C.

In turn, `CC(C)(O)C(=O)c1ccc(OCCO)cc1` returned a melting point of 89 °C.

As for `c1ccc(C2CCNCC2)cc1`, the boiling point came out at 257 °C and the melting point is 60.5 °C.

For the compound `O=S(=O)(Cl)Cc1ccccc1`, the ready biodegradability entry is “readily biodegradable”.

Take `CCOCC(=O)OCC`: the boiling point turned out to be 158 °C.

Compound `CC(C)CCCC(C)C` yielded a boiling point of 135 °C and a melting point of -103 °C.

The compound `COc1cc2ccc(=O)oc2c(O)c1O` gave a melting point of 231 °C.

Take `CCCOC(=O)c1ccccc1O`: the boiling point is 239 °C and the melting point is 97 °C.

In turn, `CC(=O)Nc1ccc(OC(=O)c2ccccc2O)cc1` had a melting point of 187 °C.

In the case of `CCCCC(CC)(CO)CO`, the boiling point came out at 262 °C, the log10 vapour pressure (mmHg) was -4, the melting point was 43.8 °C and the ready biodegradability entry is on record as “not readily biodegradable”.

Turning to `CCCCC(C)(O)CC` (stereo unspecified), the boiling point was 163 °C and the melting point was -83 °C.

`O=C(Cl)c1ccc(C(=O)Cl)cc1` gave a boiling point of 258 °C and a melting point of 83.5 °C.

As to `c1ccc2c(c1)cc1ccc3cc4ccccc4c4ccc2c1c34`, the log10 Koc (L/kg) came to 5.71, the log10 biodegradation half-life (days) is 2.47 and the melting point is 282 °C.

On to `Cn1nc2ccc(NC(=O)c3ccccc3)cc2n1`, for which the melting point worked out at 166 °C.

With `COc1ccc(C(Cl)=C(c2ccc(OC)cc2)c2ccc(OC)cc2)cc1`, the melting point is 115 °C.

In turn, `COc1cc(CO)ccc1O` had a melting point of 115 °C.

The compound `CC1(c2ccc(Oc3ccccc3)cc2)OC(=O)N(Nc2ccccc2)C1=O` (stereo unspecified) gave a log10 vapour pressure (mmHg) of -8.32 and a melting point of 141 °C.

`Cc1nc2ccccc2[nH]1` returned a melting point of 176 °C.

On to `CCC(=O)CCC(C)C`, for which the boiling point amounted to 164 °C.

For the compound `Nc1cc2ccccc2cc1C(=O)O`, the melting point stood at 216 °C.

`CCCCNC(=O)NS(=O)(=O)c1ccc(C)cc1` registered a melting point of 128 °C.

The compound `CC(C)(C)C1CCC(O)CC1` (stereo unspecified) gave a log10 vapour pressure (mmHg) of -1.15 and a melting point of 66 °C.

Regarding `NC(=O)C=Cc1ccccc1`, the melting point stood at 149 °C.

Take `CCC(O)(CC)CC`: the boiling point amounted to 142 °C and the melting point was -12.5 °C.

`CCCCCCCCCCCCCCCCCCOS(=O)(=O)[O][Na]`: the ready biodegradability entry is recorded as “readily biodegradable”.

As for `CC(CCl)CCCl` (stereo unspecified), the boiling point was 168 °C.

For the compound `CCCC(C)CBr` (stereo unspecified), the boiling point worked out at 141 °C.

In turn, `O=[N+]([O-])c1ccco1` returned a melting point of 30 °C.

As to `CC(O)C(C)O` (stereo unspecified), the ready biodegradability result was “readily biodegradable”.

`C1CCCCCC1`: the boiling point was found to be 118 °C, the log10 vapour pressure (mmHg) came to 1.33 and the melting point was -8 °C.

Consider `CNc1ccc(N)c2c1C(=O)c1ccccc1C2=O`, for which the melting point turned out to be 193 °C.

On to `c1ccc(-c2cccnc2)nc1`, for which the boiling point was 296 °C.

For the compound `CCCCCCCC(=O)O`, the boiling point came out at 239 °C, the log10 vapour pressure (mmHg) was -2.43, the melting point stood at 16.3 °C and the ready biodegradability result is given as “readily biodegradable”.

With `COc1cc([C@@H]2c3cc4c(cc3C(O[C@@H]3O[C@@H]5COC(c6cccs6)O[C@H]5[C@H](O)[C@H]3O)C3COC(=O)[C@@H]32)OCO4)cc(OC)c1O` (stereo partly specified), the melting point was 244 °C.

Compound `CCC(C)(C)OC` registered a boiling point of 86.3 °C, a log10 Henry constant (atm·m³/mol) of -2.88 and a log10 vapour pressure (mmHg) of 1.88.

`NC(N)=Nc1nc(CSCCC(N)=NS(N)(=O)=O)cs1` had a melting point of 164 °C.

Compound `Nc1cc(Cl)c(S(N)(=O)=O)cc1S(N)(=O)=O` displayed a melting point of 254 °C.

Regarding `COCC(=NOCC(=O)OC)c1cc(Oc2ccc(C(F)(F)F)cc2Cl)ccc1[N+](=O)[O-]`, the melting point stood at 58 °C.

Compound `Cc1nc(C(F)(F)F)c(C(O)=Nc2c(Br)cc(OC(F)(F)F)cc2Br)s1` came in with a melting point of 178 °C.

`O=C(O)c1c2ccccc2cc2ccccc12` came in with a log10 Koc (L/kg) of 2.74.

The compound `N#CCCN` showed a boiling point of 185 °C and a log10 vapour pressure (mmHg) of -0.0655.

In the case of `c1ccc(C2=NNCC2)cc1`, the melting point was determined as 45.8 °C.

`O=C(c1ccc(Br)cc1)c1ccc(Br)cc1` had a boiling point of 395 °C and a melting point of 177 °C.

Still in this data set, the particulars now being: fish.
With `Brc1cc(Br)c(-c2c(Br)cc(Br)cc2Br)c(Br)c1`, the log10 BCF came out at 4.66 and the log10 biotransformation half-life (days) was 2.66.

In the case of `Clc1ccccc1-c1c(Cl)cccc1Cl`, the log10 biotransformation half-life (days) was found to be 2.5.
